Measured values taken from PubChem BioAssay AID1963966 (Molecular Pharmacology Branch, DTP, NCI, 2024).

Tested on: 935938-334-R-J1-PDC spheroids with HUVEC/MSC, viability
Test: Anticancer human tumor 935938-334-R-J1-PDC patient-derived small intestine adenocarcinoma cell line growth inhibition [PI3K]
Details: for viability, T/C: stronger effect = lower value; active means viability on the fitted dose curve at most 10% of control; inactive means the rest
Description: Combinatorial screen of targeted agents with the PI3K inhibitors inavolisib, alpelisib, duvelisib, and copanlisib in multi-cell type tumor spheroids
A high-throughput screen of multi-cell type tumor spheroids was designed to identify active combinations of targeted small molecules and PI3K pathway inhibitors. Complex spheroids include a stromal component modeled by human endothelial cells (HUVEC) and fibroblasts modeled by human mesenchymal stem cells (MSCs). The concentration ranges selected for each drug and investigational agent were based upon clinically achievable concentrations if the clinical Cmax of the agent was known.
Compounds. The drugs and investigational agents: inavolisib (NSC800729), alpelisib (NSC765974), duvelisib (NSC772469), copanlisib (NSC816437), ipatasertib (NSC767898), afuresertib (NSC778305), talazoparib (NSC767125), sapanisertib (NSC764658), selumetinib (NSC741078), tovorafenib (DAY101, NSC766906), vemurafenib (NSC761431), ravoxertinib (NSC781343), sotorasib (NSC818433), MRTX1133 (NSC 836407), abemaciclib (NSC 768073), palbociclib (NSC758247), venetoclax (NSC 766270), SY5609 (NSC837396), enzalutamide (NSC755605), and darolutamide (NSC825331), were obtained from the National Cancer Institute (NCI) Developmental Therapeutics Program Chemical Repository. The FDA-approved anticancer drug set is available from the NCI Developmental Therapeutics Program. […] The stock solutions were prepared in dimethyl sulfoxide (DMSO, Sigma-Aldrich, St. Louis, MO, cat. D2650) at 800-fold the tested concentration and stored at -70 degrees C prior to their use. All drugs and investigational agents were tested over a range starting from a high concentration at or near the clinical Cmax and decreasing in half-log increments. If the clinical Cmax for an agent had not been determined, the highest concentration tested was 10 microM.
Cell Culture. All cells were maintained in an incubator at 37 degrees C and 5% CO2 with 95% humidity. The PDC lines were cultured according to standard operating procedures established by the NCI PDMR (https://pdmr.cancer.gov/sops/default.htm). All PDCs were thawed and cultured in Matrigel-coated flasks prepared with a working solution of 1X Ham's F-12 nutrient mix, without supplementation (Invitrogen, Waltham, MA, cat. 11765054), 100 U/mL penicillin-streptomycin (Invitrogen, cat. 15140122), and 2.5% Matrigel (Corning Inc., Corning, NY, cat. 354248) for the first three passages. The 354836-022-R-J1-PDC, 475296-252-R-J1-PDC, and 997726-040-R-J2-PDC lines were cultured in 6A media, which includes advanced DMEM/F-12 (Thermo Fisher Scientific, cat. 12634028), 10 mM HEPES (Thermo Fisher Scientific, cat. 15630080), 1X GlutaMAX supplement (Thermo Fisher Scientific, cat. 35050061), 0.1 mg/mL primocin (InvivoGen, San Diego, CA, cat. ant-pm-2), 10% defined fetal bovine serum, heat inactivated (HyClone Laboratories Inc., Logan, UT, cat. SH30070.03HI), 50% L-WRN conditioned media (ATCC, cat. CRL-3276), 1.25 mM N-Acetyl-L-cysteine (Sigma-Aldrich, cat. A9165), 10 mM nicotinamide (Sigma-Aldrich, cat. N0636), 1X B-27 supplement (Thermo Fisher Scientific, cat. 17504044), 1X N-2 supplement (Thermo Fisher Scientific, cat. 17502048), and 10 microM Y-27632 dihydrochloride (Tocris Bioscience, Bristol, United Kingdom, cat. 1254). The 624824-186-R-J2-PDC line was cultured in 6C/Colon 1B media, which includes all 6A media components plus 50 ng/mL human EGF recombinant protein (Thermo Fisher Scientific, cat. PHG0311). […]
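Further: compound exposure lasted seven days before viability was read.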
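Wherever viability, T/C is given: percent of vehicle DMSO treated spheroid viability so 100% = untreated.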

CNC(=O)c1ccc(N2C(=S)N(c3ccc(C#N)c(C(F)(F)F)c3)C(=O)C2(C)C)cc1F
inactive: viability, T/C (compound 0.0316 µM) 95.8% [middle of 4 runs] | viability, T/C (compound 0.1 µM) 97.6% [middle of 4 runs] | viability, T/C (compound 0.316 µM) 96.2% [middle of 4 runs] | viability, T/C (compound 3.16 µM) 101% [middle of 4 runs] | viability, T/C (compound 10 µM) 97.4% [middle of 4 runs]
> 10000 nM: IC50 (curve of compound)

Cn1ncnc1[C@H]1c2n[nH]c(=O)c3cc(F)cc(c23)N[C@@H]1c1ccc(F)cc1 + COc1c(OCCCN2CCOCC2)ccc2c3n(c(=NC(=O)c4cnc(N)nc4)nc12)CCN3
> 100 nM: IC50 (curve of first compound, second compound 0.00316 µM) | IC50 (curve of first compound, second compound 0.01 µM) | IC50 (curve of first compound, second compound 0.0316 µM)
8.29 nM: IC50 (curve of first compound, second compound 0.1 µM)
< 0.316 nM: IC50 (curve of first compound, second compound 0.316 µM) | IC50 (curve of first compound, second compound 1 µM)
inactive: viability, T/C (second compound 0.00316 µM, first compound 0.000316 µM) 90.8% | viability, T/C (second compound 0.00316 µM, first compound 0.001 µM) 96.6% | viability, T/C (second compound 0.00316 µM, first compound 0.00316 µM) 103% | viability, T/C (second compound 0.00316 µM, first compound 0.01 µM) 83.3% | viability, T/C (second compound 0.00316 µM, first compound 0.0316 µM) 96.2% | viability, T/C (second compound 0.00316 µM, first compound 0.1 µM) 92.8% | viability, T/C (second compound 0.01 µM, first compound 0.000316 µM) 109% | viability, T/C (second compound 0.01 µM, first compound 0.001 µM) 106% | viability, T/C (second compound 0.01 µM, first compound 0.00316 µM) 92.3% | viability, T/C (second compound 0.01 µM, first compound 0.01 µM) 82.2% | viability, T/C (second compound 0.01 µM, first compound 0.0316 µM) 92.4% | viability, T/C (second compound 0.01 µM, first compound 0.1 µM) 77.4% | viability, T/C (second compound 0.0316 µM, first compound 0.000316 µM) 77% | viability, T/C (second compound 0.0316 µM, first compound 0.001 µM) 65.6% | viability, T/C (second compound 0.0316 µM, first compound 0.00316 µM) 90.2% | viability, T/C (second compound 0.0316 µM, first compound 0.01 µM) 82.2% | viability, T/C (second compound 0.0316 µM, first compound 0.0316 µM) 73.8% | viability, T/C (second compound 0.0316 µM, first compound 0.1 µM) 76% | viability, T/C (second compound 0.1 µM, first compound 0.000316 µM) 56% | viability, T/C (second compound 0.1 µM, first compound 0.001 µM) 52% | viability, T/C (second compound 0.1 µM, first compound 0.00316 µM) 57.5% | viability, T/C (second compound 0.1 µM, first compound 0.01 µM) 47.2% | viability, T/C (second compound 0.1 µM, first compound 0.0316 µM) 43.5% | viability, T/C (second compound 0.1 µM, first compound 0.1 µM) 50.2% | viability, T/C (second compound 0.316 µM, first compound 0.000316 µM) 31.2% | viability, T/C (second compound 0.316 µM, first compound 0.001 µM) 35.3% | viability, T/C (second compound 0.316 µM, first compound 0.00316 µM) 34.5% | viability, T/C (second compound 0.316 µM, first compound 0.01 µM) 34.6% | viability, T/C (second compound 0.316 µM, first compound 0.0316 µM) 34.2% | viability, T/C (second compound 0.316 µM, first compound 0.1 µM) 35.4% | viability, T/C (second compound 1 µM, first compound 0.000316 µM) 33.1% | viability, T/C (second compound 1 µM, first compound 0.001 µM) 40.3% | viability, T/C (second compound 1 µM, first compound 0.00316 µM) 37.5% | viability, T/C (second compound 1 µM, first compound 0.01 µM) 32.7% | viability, T/C (second compound 1 µM, first compound 0.0316 µM) 36% | viability, T/C (second compound 1 µM, first compound 0.1 µM) 35.1%
